ChEMBL document CHEMBL3045227, “Development of 4-aminoquinoline-1,3,5-triazine conjugates as potent antibacterial agent through facile synthetic route” (2013)
Values after ≈ are worked out from the molar mass of the structure shown.

Key:
Assay type in all cases: functional
Proteus vulgaris = assay: Antibacterial activity against Proteus vulgaris NCIM 2027 assessed as growth inhibition after 24 hr by NCCLS broth dilution method; conditions: NCIM 2027, 24 h
Proteus mirabilis = assay: Antibacterial activity against Proteus mirabilis NCIM 2241 assessed as growth inhibition after 24 hr by NCCLS broth dilution method; conditions: NCIM 2241, 24 h
Escherichia coli = assay: Antibacterial activity against Escherichia coli NCIM 2065 assessed as growth inhibition after 24 hr by NCCLS broth dilution method; conditions: NCIM 2065, 24 h
Pseudomonas aeruginosa = assay: Antibacterial activity against Pseudomonas aeruginosa NCIM 2036 assessed as growth inhibition after 24 hr by NCCLS broth dilution method; conditions: NCIM 2036, 24 h
Bacillus cereus = assay: Antibacterial activity against Bacillus cereus NCIM 2156 assessed as growth inhibition after 24 hr by NCCLS broth dilution method; conditions: NCIM 2156, 24 h
Bacillus subtilis = assay: Antibacterial activity against Bacillus subtilis NCIM 2063 assessed as growth inhibition after 24 hr by NCCLS broth dilution method; conditions: NCIM 2063, 24 h
Staphylococcus aureus = assay: Antibacterial activity against Staphylococcus aureus NCIM 2079 assessed as growth inhibition after 24 hr by NCCLS broth dilution method; conditions: NCIM 2079, 24 h

Row | SMILES | MIC (Proteus vulgaris) | MIC (Proteus mirabilis) | MIC (Escherichia coli) | MIC (Pseudomonas aeruginosa) | MIC (Bacillus cereus) | MIC (Bacillus subtilis) | MIC (Staphylococcus aureus)
1 | Cc1ccccc1Nc1nc(Nc2ccc([N+](=O)[O-])cc2)nc(N2CCN(C(=S)Nc3ccnc4cc(Cl)ccc34)CC2)n1 | 25 µg/mL (≈ 39.9 µM) | 12.5 µg/mL (≈ 19.9 µM) | 6.25 µg/mL (≈ 9.97 µM) | 6.25 µg/mL (≈ 9.97 µM) | 12.5 µg/mL (≈ 19.9 µM) | 12.5 µg/mL (≈ 19.9 µM) | 25 µg/mL (≈ 39.9 µM)
2 | O=[N+]([O-])c1ccc(Nc2nc(Nc3ccccc3)nc(N3CCN(C(=S)Nc4ccnc5cc(Cl)ccc45)CC3)n2)cc1 | 12.5 µg/mL (≈ 20.4 µM) | 6.25 µg/mL (≈ 10.2 µM) | 12.5 µg/mL (≈ 20.4 µM) | 6.25 µg/mL (≈ 10.2 µM) | 3.12 µg/mL (≈ 5.1 µM) | 12.5 µg/mL (≈ 20.4 µM) | 12.5 µg/mL (≈ 20.4 µM)
3 | NCCCNc1nc(Nc2ccc([N+](=O)[O-])cc2)nc(N2CCN(C(=S)Nc3ccnc4cc(Cl)ccc34)CC2)n1 | 25 µg/mL (≈ 42.1 µM) | 12.5 µg/mL (≈ 21 µM) | 12.5 µg/mL (≈ 21 µM) | 12.5 µg/mL (≈ 21 µM) | 12.5 µg/mL (≈ 21 µM) | 25 µg/mL (≈ 42.1 µM) | 25 µg/mL (≈ 42.1 µM)
4 | O=[N+]([O-])c1ccc(Nc2nc(Nc3ccc(O)cc3)nc(N3CCN(C(=S)Nc4ccnc5cc(Cl)ccc45)CC3)n2)cc1 | 50 µg/mL (≈ 79.5 µM) | 50 µg/mL (≈ 79.5 µM) | 50 µg/mL (≈ 79.5 µM) | 25 µg/mL (≈ 39.7 µM) | 25 µg/mL (≈ 39.7 µM) | 25 µg/mL (≈ 39.7 µM) | 100 µg/mL (≈ 159 µM)
5 | CC1COc2c(N3CCN(C)CC3)c(F)cc3c(=O)c(C(=O)O)cn1c23 (stereo not given) [OFLOXACIN] | 3.12 µg/mL (≈ 8.65 µM) | 3.12 µg/mL (≈ 8.65 µM) | 3.12 µg/mL (≈ 8.65 µM) | 6.25 µg/mL (≈ 17.3 µM) | 6.25 µg/mL (≈ 17.3 µM) | 3.12 µg/mL (≈ 8.65 µM) | 6.25 µg/mL (≈ 17.3 µM)

Further molecules by falling MIC (Proteus vulgaris), results first:

Row | MIC (Proteus vulgaris) | MIC (Proteus mirabilis) | MIC (Escherichia coli) | MIC (Pseudomonas aeruginosa) | MIC (Bacillus cereus) | MIC (Bacillus subtilis) | MIC (Staphylococcus aureus) | SMILES
6 | 12.5 µg/mL (≈ 19.9 µM) | 3.12 µg/mL (≈ 4.98 µM) | 12.5 µg/mL (≈ 19.9 µM) | 6.25 µg/mL (≈ 9.97 µM) | 3.12 µg/mL (≈ 4.98 µM) | 6.25 µg/mL (≈ 9.97 µM) | 12.5 µg/mL (≈ 19.9 µM) | Cc1ccc(Nc2nc(Nc3ccc([N+](=O)[O-])cc3)nc(N3CCN(C(=S)Nc4ccnc5cc(Cl)ccc45)CC3)n2)cc1
7 | 12.5 µg/mL | 6.25 µg/mL | 25 µg/mL | 12.5 µg/mL | 6.25 µg/mL | 6.25 µg/mL | 25 µg/mL | NNc1nc(Nc2ccc([N+](=O)[O-])cc2)nc(N2CCN(C(=S)Nc3ccnc4cc(Cl)ccc34)CC2)n1.O
8 | 12.5 µg/mL (≈ 20.5 µM) | 12.5 µg/mL (≈ 20.5 µM) | 6.25 µg/mL (≈ 10.2 µM) | 6.25 µg/mL (≈ 10.2 µM) | 3.12 µg/mL (≈ 5.11 µM) | 6.25 µg/mL (≈ 10.2 µM) | 25 µg/mL (≈ 40.9 µM) | NC(=S)NNc1nc(Nc2ccc([N+](=O)[O-])cc2)nc(N2CCN(C(=S)Nc3ccnc4cc(Cl)ccc34)CC2)n1
9 | 6.25 µg/mL (≈ 10.5 µM) | 6.25 µg/mL (≈ 10.5 µM) | 12.5 µg/mL (≈ 21 µM) | 12.5 µg/mL (≈ 21 µM) | 6.25 µg/mL (≈ 10.5 µM) | 3.12 µg/mL (≈ 5.25 µM) | 12.5 µg/mL (≈ 21 µM) | NC(=O)NNc1nc(Nc2ccc([N+](=O)[O-])cc2)nc(N2CCN(C(=S)Nc3ccnc4cc(Cl)ccc34)CC2)n1
10 | 3.12 µg/mL (≈ 5.15 µM) | 12.5 µg/mL (≈ 20.6 µM) | 6.25 µg/mL (≈ 10.3 µM) | 12.5 µg/mL (≈ 20.6 µM) | 3.12 µg/mL (≈ 5.15 µM) | 6.25 µg/mL (≈ 10.3 µM) | 3.12 µg/mL (≈ 5.15 µM) | O=[N+]([O-])c1ccc(Nc2nc(N3CCOCC3)nc(N3CCN(C(=S)Nc4ccnc5cc(Cl)ccc45)CC3)n2)cc1
